Test results published in ChEMBL document CHEMBL5614367, “Hydroxamic acid hybrids: Histone deacetylase inhibitors with anticancer therapeutic potency” (Eur J Med Chem, 2023).
One block for each compound: values may come before it.

What was measured:
[1] = test system: U-266; assay: cells; assay type: functional, cell-based; settings: Homo sapiens, U-266, 72 h
Description: Antiproliferative activity against human U-266 cells assessed as inhibition of cell growth measured after 72 hrs by CCK-8 assay

[2] = test system: MDA-MB-231; assay: cells; assay type: functional, cell-based; settings: Homo sapiens, MDA-MB-231, 72 h
Description: Antiproliferative activity against human MDA-MB-231 cells assessed as inhibition of cell growth measured after 72 hrs by CCK-8 assay

[3] = test system: K562; assay: cells; assay type: functional, cell-based; settings: Homo sapiens, K562, 72 h
Description: Antiproliferative activity against human K562 cells assessed as inhibition of cell growth measured after 72 hrs by CCK-8 assay

[4] = test system: A2780; assay: cells; assay type: functional, cell-based; settings: Homo sapiens, A2780, 72 h
Description: Antiproliferative activity against human A2780 cells assessed as inhibition of cell growth measured after 72 hrs by CCK-8 assay

[5] = test system: U-937; assay: cells; assay type: functional, cell-based; settings: Homo sapiens, U-937, 72 h
Description: Antiproliferative activity against human U-937 cells assessed as inhibition of cell growth measured after 72 hrs by CCK-8 assay

[6] = test system: MDA-MB-468; assay: cells; assay type: functional, cell-based; settings: Homo sapiens, MDA-MB-468, 72 h
Description: Antiproliferative activity against human MDA-MB-468 cells assessed as inhibition of cell growth measured after 72 hrs by CCK-8 assay

[7] = test system: FaDu; assay: cells; assay type: functional, cell-based; settings: Homo sapiens, 72 h
Description: Antiproliferative activity against human FaDu cells assessed as inhibition of cell growth measured after 72 hrs by CCK-8 assay

[8] = test system: HepG2; assay: cells; assay type: functional, cell-based; settings: Homo sapiens, HepG2, 72 h
[9] = test system: C6; assay: cells; assay type: functional, cell-based; settings: Rattus norvegicus, C6, 72 h
Description: Antiproliferative activity against rat C6 cells assessed as inhibition of cell growth measured after 72 hrs by CCK-8 assay

[10] = test system: A549; assay: cells; assay type: functional, cell-based; settings: Homo sapiens, A549, 72 h
Description: Antiproliferative activity against human A549 cells assessed as inhibition of cell growth measured after 72 hrs by CCK-8 assay

[11] = test system: MCF7; assay: cells; settings: Homo sapiens
[12] = biological target: T1, Protein deacetylase HDAC6 (Homo sapiens, UniProt Q9UBN7); assay: Inhibition of HDAC6 (unknown origin)
T1 sequence (Q9UBN7 whole entry): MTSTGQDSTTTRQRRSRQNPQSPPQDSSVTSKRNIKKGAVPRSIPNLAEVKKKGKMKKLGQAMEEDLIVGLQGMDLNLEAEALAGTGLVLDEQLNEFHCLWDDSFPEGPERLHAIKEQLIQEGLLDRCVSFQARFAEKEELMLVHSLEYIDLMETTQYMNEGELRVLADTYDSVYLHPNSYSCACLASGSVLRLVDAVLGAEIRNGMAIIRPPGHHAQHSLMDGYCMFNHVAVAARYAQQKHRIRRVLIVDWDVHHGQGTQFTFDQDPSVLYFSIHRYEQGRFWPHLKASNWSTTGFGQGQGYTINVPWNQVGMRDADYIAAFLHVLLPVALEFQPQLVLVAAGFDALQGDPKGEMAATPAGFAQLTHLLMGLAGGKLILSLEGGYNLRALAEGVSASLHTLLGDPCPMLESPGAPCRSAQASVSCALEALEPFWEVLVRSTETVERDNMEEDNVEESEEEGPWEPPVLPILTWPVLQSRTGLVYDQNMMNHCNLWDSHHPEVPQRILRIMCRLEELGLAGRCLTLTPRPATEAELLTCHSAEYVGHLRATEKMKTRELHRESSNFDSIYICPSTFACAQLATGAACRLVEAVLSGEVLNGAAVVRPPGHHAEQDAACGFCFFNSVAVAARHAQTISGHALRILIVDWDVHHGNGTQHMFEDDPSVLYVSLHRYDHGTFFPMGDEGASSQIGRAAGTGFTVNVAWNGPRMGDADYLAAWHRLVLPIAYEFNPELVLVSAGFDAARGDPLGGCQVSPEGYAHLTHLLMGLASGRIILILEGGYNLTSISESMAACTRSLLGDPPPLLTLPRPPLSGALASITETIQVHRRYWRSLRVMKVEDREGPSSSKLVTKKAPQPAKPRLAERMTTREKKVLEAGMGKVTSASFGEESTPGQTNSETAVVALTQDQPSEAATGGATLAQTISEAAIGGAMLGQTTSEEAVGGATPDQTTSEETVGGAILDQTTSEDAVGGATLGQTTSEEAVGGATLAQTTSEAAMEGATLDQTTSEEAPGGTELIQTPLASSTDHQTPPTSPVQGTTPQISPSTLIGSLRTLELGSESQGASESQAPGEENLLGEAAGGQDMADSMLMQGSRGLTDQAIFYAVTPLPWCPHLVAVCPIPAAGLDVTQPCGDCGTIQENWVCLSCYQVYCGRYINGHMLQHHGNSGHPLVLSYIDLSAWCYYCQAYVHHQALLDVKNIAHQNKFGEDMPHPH

[13] = test system: U-87 MG; assay: Antiproliferative activity against human U-87 MG cells; assay type: functional, cell-based, U-87MG ATCC
[14] = Cytotoxicity against HEK293T cells; assay type: toxicity, cell-based, HEK-293T; settings: human
[15] = test system: SCC-25; assay: Antiproliferative activity against human SCC-25 cells; assay type: functional, cell-based
[16] = Metabolic stability in rat liver microsomes assessed as half life; assay type: ADME, Microsome
[17] = test system: HCT-116; assay: Antiproliferative activity against human HCT-116 cells by MTT assay; assay type: functional, cell-based
[18] = biological target: DNA (cytosine-5)-methyltransferase 1 (Homo sapiens, UniProt P26358); assay: Inhibition of DNMT1 (unknown origin)
Sequence of DNA (cytosine-5)-methyltransferase 1 (P26358 whole entry): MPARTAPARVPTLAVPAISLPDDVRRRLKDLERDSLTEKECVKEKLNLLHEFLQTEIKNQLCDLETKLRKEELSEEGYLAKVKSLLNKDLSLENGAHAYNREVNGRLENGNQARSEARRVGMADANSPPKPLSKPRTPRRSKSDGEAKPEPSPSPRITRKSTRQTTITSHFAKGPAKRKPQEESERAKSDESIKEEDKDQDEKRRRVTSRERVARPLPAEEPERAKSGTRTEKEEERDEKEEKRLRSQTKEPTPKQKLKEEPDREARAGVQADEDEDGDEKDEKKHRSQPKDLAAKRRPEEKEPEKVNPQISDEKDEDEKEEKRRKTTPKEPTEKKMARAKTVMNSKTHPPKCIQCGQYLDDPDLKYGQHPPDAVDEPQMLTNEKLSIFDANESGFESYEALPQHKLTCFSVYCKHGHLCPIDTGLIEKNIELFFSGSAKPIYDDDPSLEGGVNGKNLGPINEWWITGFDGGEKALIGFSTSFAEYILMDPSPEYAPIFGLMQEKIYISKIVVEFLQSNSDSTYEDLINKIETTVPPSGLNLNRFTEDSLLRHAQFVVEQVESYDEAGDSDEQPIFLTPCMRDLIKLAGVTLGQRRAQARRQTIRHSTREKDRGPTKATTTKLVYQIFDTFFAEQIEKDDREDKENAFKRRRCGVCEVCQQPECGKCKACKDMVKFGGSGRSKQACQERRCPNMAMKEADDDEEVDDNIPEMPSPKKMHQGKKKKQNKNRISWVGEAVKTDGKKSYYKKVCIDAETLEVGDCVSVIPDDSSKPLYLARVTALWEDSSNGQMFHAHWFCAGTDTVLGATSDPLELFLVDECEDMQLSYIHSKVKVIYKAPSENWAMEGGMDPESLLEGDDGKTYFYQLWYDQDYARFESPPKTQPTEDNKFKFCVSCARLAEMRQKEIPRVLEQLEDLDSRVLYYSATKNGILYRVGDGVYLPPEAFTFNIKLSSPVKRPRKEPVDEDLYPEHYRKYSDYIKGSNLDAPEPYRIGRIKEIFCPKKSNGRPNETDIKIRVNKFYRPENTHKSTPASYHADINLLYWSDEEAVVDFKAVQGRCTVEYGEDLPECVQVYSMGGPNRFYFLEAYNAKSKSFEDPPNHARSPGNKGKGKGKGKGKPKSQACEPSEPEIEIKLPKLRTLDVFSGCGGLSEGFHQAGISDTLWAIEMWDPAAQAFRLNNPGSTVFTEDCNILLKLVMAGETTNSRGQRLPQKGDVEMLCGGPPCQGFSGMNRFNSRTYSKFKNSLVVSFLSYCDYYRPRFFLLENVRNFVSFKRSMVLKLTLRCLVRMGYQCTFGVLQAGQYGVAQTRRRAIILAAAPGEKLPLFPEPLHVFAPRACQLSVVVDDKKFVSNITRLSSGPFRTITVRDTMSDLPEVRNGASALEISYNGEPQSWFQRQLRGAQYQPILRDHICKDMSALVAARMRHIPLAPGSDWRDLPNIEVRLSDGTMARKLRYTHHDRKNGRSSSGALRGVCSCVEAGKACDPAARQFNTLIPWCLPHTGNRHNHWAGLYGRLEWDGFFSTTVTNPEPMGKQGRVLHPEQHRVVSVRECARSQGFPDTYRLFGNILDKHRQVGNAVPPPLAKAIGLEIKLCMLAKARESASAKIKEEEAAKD

[19] = biological target: Cytochrome P450 2D6 (Homo sapiens, UniProt P10635); assay: Inhibition of CYP2D6 in human liver microsomes; assay type: ADME, Microsome
Sequence of Cytochrome P450 2D6 (P10635 whole entry): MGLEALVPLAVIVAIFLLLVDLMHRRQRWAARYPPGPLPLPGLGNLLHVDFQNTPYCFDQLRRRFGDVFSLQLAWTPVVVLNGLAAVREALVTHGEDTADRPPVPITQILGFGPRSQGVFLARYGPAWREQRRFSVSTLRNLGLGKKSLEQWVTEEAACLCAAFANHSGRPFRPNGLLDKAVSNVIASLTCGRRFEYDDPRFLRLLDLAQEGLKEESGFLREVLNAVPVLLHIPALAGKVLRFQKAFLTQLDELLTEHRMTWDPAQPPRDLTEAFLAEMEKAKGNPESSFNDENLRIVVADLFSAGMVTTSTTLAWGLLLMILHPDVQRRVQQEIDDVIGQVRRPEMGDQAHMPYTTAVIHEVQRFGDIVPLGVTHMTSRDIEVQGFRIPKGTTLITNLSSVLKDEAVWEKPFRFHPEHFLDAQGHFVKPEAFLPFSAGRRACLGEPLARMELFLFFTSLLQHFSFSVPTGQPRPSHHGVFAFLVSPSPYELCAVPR

[20] = test system: U-937; assay: Antiproliferative activity against human U-937 cells by MTT assay; assay type: functional, cell-based
[21] = test system: K562; assay: Antiproliferative activity against human K562 cells by MTT assay; assay type: functional, cell-based
[22] = biological target: Histone deacetylase 1 (Homo sapiens, UniProt Q13547); assay: Inhibition of HDAC1 (unknown origin)
Sequence of Histone deacetylase 1 (Q13547 whole entry): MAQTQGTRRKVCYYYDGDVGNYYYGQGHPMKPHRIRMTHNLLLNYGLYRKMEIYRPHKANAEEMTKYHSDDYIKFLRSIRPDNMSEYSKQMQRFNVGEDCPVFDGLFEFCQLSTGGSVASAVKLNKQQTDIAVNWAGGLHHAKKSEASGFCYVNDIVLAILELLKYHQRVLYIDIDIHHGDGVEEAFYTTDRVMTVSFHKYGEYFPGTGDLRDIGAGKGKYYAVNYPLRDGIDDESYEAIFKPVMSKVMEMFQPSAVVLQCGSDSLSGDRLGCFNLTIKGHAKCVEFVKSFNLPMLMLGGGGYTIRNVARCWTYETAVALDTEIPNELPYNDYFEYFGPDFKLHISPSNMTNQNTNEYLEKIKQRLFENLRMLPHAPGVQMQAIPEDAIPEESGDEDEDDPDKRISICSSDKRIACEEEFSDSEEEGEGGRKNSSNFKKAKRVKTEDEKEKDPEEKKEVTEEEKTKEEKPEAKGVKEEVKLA

[23] = test system: MCF7; assay: Antiproliferative activity against human MCF7 cells measured after 24 hrs by MTT assay; assay type: functional, cell-based; settings: MCF7, 24 h
[24] = test system: HeLa; assay: Antiproliferative activity against human HeLa cells measured after 24 hrs by MTT assay; assay type: functional, cell-based
[25] = test system: HepG2; assay: Antiproliferative activity against human HepG2 cells measured after 24 hrs by MTT assay; assay type: functional, cell-based; settings: HepG2, 24 h
[26] = test system: HCT-116; assay: Antiproliferative activity against human HCT-116 cells measured after 24 hrs by MTT assay; assay type: functional, cell-based; settings: HCT-116, 24 h
[27] = test system: HCT 116 TP53(-/-); assay: cells; assay type: functional, cell-based; settings: Homo sapiens, 72 h
[28] = test system: 518A2; assay: cells; assay type: functional, cell-based; settings: Homo sapiens, 518A2, 72 h
[29] = test system: HepG2; assay: cells; assay type: functional, cell-based; settings: Homo sapiens, HepG2, 72 h; remark: listed apart in the source
[30] = test system: HCT-116; assay: cells; assay type: functional, cell-based; settings: Homo sapiens, HCT-116, 72 h
[31] = test system: Huh-7; assay: cells; assay type: functional, cell-based; settings: Homo sapiens, Huh-7, 72 h
[32] = biological target: T1, Protein deacetylase HDAC6; assay: Inhibition of HDAC6 (unknown origin) incubated for 30 mins in presence of fluorimetric assay
[33] = test system: NCI-H23; assay: Antiproliferative activity against human NCI-H23 cells incubated for 48 hrs by colorimetric method; assay type: functional, cell-based; settings: NCI-H23, 48 h
[34] = test system: PC-3; assay: Antiproliferative activity against human PC-3 cells incubated for 48 hrs by colorimetric method; assay type: functional, cell-based; settings: PC-3, 48 h
[35] = test system: SW-620; assay: Antiproliferative activity against human SW620 cells incubated for 48 hrs by colorimetric method; assay type: functional, cell-based; settings: SW-620, 48 h
[36] = Cytotoxicity against human L02 cells; assay type: toxicity, cell-based
[37] = Cytotoxicity against human BEAS-2B cells; assay type: toxicity, cell-based

Structure (SMILES): COc1cc(Nc2nc(N3CCN(c4ncc(C(=O)NO)cn4)CC3)ncc2Cl)cc(OC)c1
- IC50 [1]: 280 nM
- IC50 [2]: 280 nM
- IC50 [3]: 280 nM
- IC50 [4]: 280 nM
- IC50 [5]: 280 nM
- IC50 [6]: 280 nM
- IC50 [7]: 280 nM
- IC50 [8]: 280 nM
- IC50 [9]: 280 nM
- IC50 [10]: 280 nM

Structure (SMILES): Nc1ccn(Cc2ccc(-c3cn(CCCCCCC(=O)NO)nn3)cc2)c(=O)n1
- half-life [16]: 6.08 h
- IC50 [17]: 7100 nM
- IC50 [18]: 6390 nM
- IC50 [12]: 8.37 nM
- IC50 [19]: 8700 nM
- IC50 [20]: 7100 nM
- IC50 [21]: 7100 nM
- IC50 [22]: 2.68 nM

Structure (SMILES): CCCC(CCC)C(=O)O [VALPROIC ACID]
- IC50 [23]: 4660 nM
- IC50 [24]: 4660 nM
- IC50 [25]: 4660 nM
- IC50 [26]: 4660 nM

Structure (SMILES): COc1ccc(-c2ocnc2-c2cc(OC)c(OC)c(OC)c2)cc1OCCCCCC(=O)NO
- IC50 [27]: 610 nM
- IC50 [28]: 610 nM
- IC50 [29]: 610 nM
- IC50 [30]: 610 nM
- IC50 [12]: ~1000 nM
- IC50 [31]: 610 nM

Structure (SMILES): Cc1ccc(Cn2cnc3cc(/C=C/C(=O)NO)ccc3c2=O)cc1
- IC50 [32]: 33 nM
- IC50 [33]: 670 nM
- IC50 [34]: 670 nM
- IC50 [35]: 670 nM

Structure (SMILES): COCCOc1ccc2c(OCCCCCCCC(=O)NO)cc(=O)oc2c1
- IC50 [36]: > 50000 nM
- IC50 [37]: > 50000 nM

The next lines start with results.

- IC50 [11]: 4010 nM
- IC50 [12]: 8.7 nM
- IC50 [13]: 4010 nM
Structure (SMILES): COc1ccc(-c2ccc(C(=O)N3CCc4c(cc(Cl)c(C(=O)NO)c4Cl)C3)cc2)cc1
- IC50 [14]: 51200 nM
- IC50 [15]: 4010 nM

- IC50 [11]: 3110 nM
- IC50 [12]: 0.2 nM
- IC50 [13]: 3110 nM
Structure (SMILES): O=C(NO)c1c(Cl)cc2c(c1Cl)CCN(C(=O)c1cc3ccccc3[nH]1)C2
- IC50 [14]: 56900 nM
- IC50 [15]: 3110 nM
